# PubChem BioAssay (NCI)
#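 Here, GI50 denotes the concentration required for 50% inhibition of growth. At the TGI there is no net growth.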
# Experiments:
# Experiment in all cases: inhibition of tumour cell growth, NCI panel, 384-well format
# KM12 colon = tested on: KM12 colon
# SK-MEL-2 melanoma = tested on: SK-MEL-2 melanoma
# SK-MEL-5 melanoma = tested on: SK-MEL-5 melanoma
# MCF7 breast = tested on: MCF7 breast
# HOP-92 NSCLC = tested on: HOP-92 NSCLC
# K-562 leukemia = tested on: K-562 leukemia
# SNB-75 CNS = tested on: SNB-75 CNS
# A498 renal = tested on: A498 renal
# RXF 393 renal = tested on: RXF 393 renal
# DU-145 prostate = tested on: DU-145 prostate
# OVCAR-4 ovarian = tested on: OVCAR-4 ovarian
# ACHN renal = tested on: ACHN renal
# TK-10 renal = tested on: TK-10 renal
structure (smiles),measurement,setting,value
CCc1c(C#N)c(SC(C(N)=O)c2ccccc2)nc(N2CCC(N)CC2)c1C#N (stereo unspecified),GI50,KM12 colon,11.2 µM
same,TGI,KM12 colon,23.4 µM
same,GI50,SK-MEL-2 melanoma,12 µM
same,TGI,SK-MEL-2 melanoma,24.4 µM
same,GI50,SK-MEL-5 melanoma,11 µM
same,TGI,SK-MEL-5 melanoma,23 µM
same,GI50,MCF7 breast,5.36 µM
same,TGI,MCF7 breast,17.7 µM
same,GI50,HOP-92 NSCLC,13 µM
same,TGI,HOP-92 NSCLC,25.7 µM
same,GI50,K-562 leukemia,5.63 µM
same,TGI,K-562 leukemia,18.3 µM
same,GI50,SNB-75 CNS,14.9 µM
same,TGI,SNB-75 CNS,28.2 µM
same,GI50,A498 renal,12.9 µM
same,TGI,A498 renal,25.6 µM
same,GI50,RXF 393 renal,16.2 µM
same,TGI,RXF 393 renal,29.8 µM
same,GI50,DU-145 prostate,3.33 µM
same,TGI,DU-145 prostate,12.4 µM
same,GI50,OVCAR-4 ovarian,13.7 µM
same,TGI,OVCAR-4 ovarian,26.6 µM
same,GI50,ACHN renal,14.9 µM
same,TGI,ACHN renal,28.2 µM
same,GI50,TK-10 renal,17.5 µM
same,TGI,TK-10 renal,31.4 µM
